Values quoted from earlier work, collected in PMC7904743, “WIDOCK: a reactive docking protocol for virtual screening of covalent inhibitors” (Journal of Computer-Aided Molecular Design, 2021).
Read-outs that look alike come from different tables or passages of the source.

Legend:
OTUB2 = details: experimental actives if % labeling higher than 50%, cited from earlier work
NUDT7 = details: protein labeling at 200 μM; experimental actives if % labeling higher than 50%; cited from earlier work
[1] = thiol reactivity, cited from earlier work
[2] = natural log of average rate constant k
[3] = natural logarithm of average rate constant
[4] = natural log of average kinetic rate constant
[5] = natural log of average rate constant

Structure (SMILES)	OTUB2 % labeling (OTUB2)	NUDT7 % labeling (NUDT7)	ln(avg k) [1, 2]	ln(avg k) [1, 3]	OTUB2 % labeling (OTUB2; OTUB2 protein labeling)	ln(avg k) [1, 4]	ln(avg k) [1, 5]
CC(C)(C)c1cc(NC(=O)CCl)n(-c2ccccc2)n1 [PCM-0102536, CC(C)(C)c1cc(NC(=O)CCl)n(-c2ccccc2)n1]	14%	0%	-15.955	-15.955	–	–	–
O=C(CCl)NNC(=O)CC1CCS(=O)(=O)C1 (stereo not drawn) [PCM-0102998, O=C(CCl)NNC(=O)CC1CCS(=O)(=O)C1]	–	0%	–	–	69%	-16.898	-16.898
O=C(CCl)Nc1cc(Cl)ccc1C(=O)O [PCM-0102412, O=C(CCl)Nc1cc(Cl)ccc1C(=O)O]	7%	16%	-17.207	-17.207	–	–	–
O=C(CCl)Nc1ccc(OC(F)(F)F)cc1 [PCM-0102276, O=C(CCl)Nc1ccc(OC(F)(F)F)cc1]	36%	24%	-15.893	-15.893	–	–	–
CC(NC(=O)CCl)c1ccc2c(c1)CC(=O)N2 (stereo not drawn) [PCM-0102816, CC(NC(=O)CCl)c1ccc2c(c1)CC(=O)N2]	–	22%	–	–	29%	-16.367	-16.367
Cc1ccccc1NC(=O)CCl [PCM-0102887, Cc1ccccc1NC(=O)CCl]	–	0%	–	–	0%	-16.445	-16.445
O=C(CCl)Nc1ccc(C(=O)O)cc1 [PCM-0102400, O=C(CCl)Nc1ccc(C(=O)O)cc1]	0%	0%	-16.430	-16.430	–	–	–
CC1CCC(NC(=O)CCl)CC1 (stereo not drawn) [PCM-0102913, CC1CCC(NC(=O)CCl)CC1]	–	0%	–	–	8%	-16.529	-16.529
O=C(CCl)N1CCCC2CCCCC21 (stereo not drawn) [PCM-0102826, O=C(CCl)N1CCCC2CCCCC21]	–	7%	–	–	0%	-16.060	-16.060
N#Cc1ccc(Cl)cc1NC(=O)CCl [PCM-0102700, N#Cc1ccc(Cl)cc1NC(=O)CCl]	17%	40%	-16.148	-16.148	–	–	–
O=C(CCl)NCC1CCS(=O)(=O)C1 (stereo not drawn) [PCM-0102896, O=C(CCl)NCC1CCS(=O)(=O)C1]	–	0%	–	–	23%	-16.032	-16.032
CC(NC(=O)CCl)c1ccccc1Br (stereo not drawn) [PCM-0102256, CC(NC(=O)CCl)c1ccccc1Br]	29%	19%	-16.021	-16.021	–	–	–
N#CC(c1ccc(F)cc1)N1CCN(C(=O)CCl)CC1 (stereo not drawn) [PCM-0102341, N#CC(c1ccc(F)cc1)N1CCN(C(=O)CCl)CC1]	0%	0%	-14.949	-14.949	–	–	–
O=C(CCl)NC1(c2ccccc2)CCC1 [PCM-0102935, O=C(CCl)NC1(c2ccccc2)CCC1]	–	29%	–	–	0%	-16.140	-16.140
COc1cccc(C2CCCN2C(=O)CCl)c1 (stereo not drawn) [PCM-0102716, COc1cccc(C2CCCN2C(=O)CCl)c1]	9%	68%	–	-15.631	–	–	-15.631
CC(C)N(C(=O)CCl)C(C)C [PCM-0103023, CC(C)N(C(=O)CCl)C(C)C]	–	0%	–	–	0%	-17.155	-17.155
COc1ccc(Cl)cc1NC(=O)CCl [PCM-0102370, COc1ccc(Cl)cc1NC(=O)CCl]	18%	23%	-15.854	-15.854	–	–	–
COc1ccc(C2=CCN(C(=O)CCl)CC2)cc1 [PCM-0102929, COc1ccc(C2=CCN(C(=O)CCl)CC2)cc1]	–	45%	–	–	0%	-16.042	-16.042
CC(=O)c1ccc(N2CCN(C(=O)CCl)CC2)c(F)c1 [PCM-0102273, CC(=O)c1ccc(N2CCN(C(=O)CCl)CC2)c(F)c1]	0%	20%	-15.374	-15.374	–	–	–
Cc1ccccc1CN(C)C(=O)CCl [PCM-0102707, Cc1ccccc1CN(C)C(=O)CCl]	0%	13%	–	-15.717	–	–	-15.717
CC(c1ccc(F)c(F)c1)N(C)C(=O)CCl (stereo not drawn) [PCM-0102438, CC(c1ccc(F)c(F)c1)N(C)C(=O)CCl]	8%	14%	-16.135	-16.135	–	–	–

Structure (SMILES)	OTUB2 % labeling (OTUB2)	NUDT7 % labeling (NUDT7)	ln(avg k) [1, 2]	ln(avg k) [1, 3]	OTUB2 % labeling (OTUB2; OTUB2 protein labeling)	ln(avg k) [1, 4]	ln(avg k) [1, 5]
O=C(CCl)N1CCN(S(=O)(=O)c2c(F)cccc2F)CC1 [PCM-0102201, O=C(CCl)N1CCN(S(=O)(=O)c2c(F)cccc2F)CC1]	0%	0%	-15.250	-15.250	–	–	–
O=C(CCl)NCc1cccc(F)c1 [PCM-0103047, O=C(CCl)NCc1cccc(F)c1]	–	0%	–	–	43%	-16.636	-16.636
O=C(CCl)Nc1nc2ccccc2s1 [PCM-0102698, O=C(CCl)Nc1nc2ccccc2s1]	7%	83%	-15.845	-15.845	–	–	–
CN(C)S(=O)(=O)c1ccc2c(c1)CCCN2C(=O)CCl [PCM-0102285, CN(C)S(=O)(=O)c1ccc2c(c1)CCCN2C(=O)CCl]	0%	0%	-15.789	-15.789	–	–	–
O=C(CCl)N1CCc2sccc2C1 [PCM-0102123, O=C(CCl)N1CCc2sccc2C1]	39%	14%	-15.106	-15.106	–	–	–
CN(C(=O)CCl)C1CCCc2ccccc21 (stereo not drawn) [PCM-0102703, CN(C(=O)CCl)C1CCCc2ccccc21]	0%	30%	–	-15.771	–	–	-15.771
Cc1ccc(NC(=O)CCl)cc1 [PCM-0102320, Cc1ccc(NC(=O)CCl)cc1]	24%	0%	-16.011	-16.011	–	–	–
Cc1ccc(NC(=O)NC(=O)CCl)c(C)c1 [PCM-0102171, Cc1ccc(NC(=O)NC(=O)CCl)c(C)c1]	10%	20%	-15.812	-15.812	–	–	–
O=C(CCl)N=c1sccn1Cc1ccccc1Cl [PCM-0102550, O=C(CCl)N=c1sccn1Cc1ccccc1Cl]	0%	11%	-15.426	-15.426	–	–	–
CCC1c2ccsc2CCN1C(=O)CCl (stereo not drawn) [PCM-0103051, CCC1c2ccsc2CCN1C(=O)CCl]	–	30%	–	–	0%	-15.594	-15.594
Cc1ccccc1C(=O)NC1CCN(C(=O)CCl)CC1 [PCM-0103013, Cc1ccccc1C(=O)NC1CCN(C(=O)CCl)CC1]	–	0%	–	–	0%	-15.378	-15.378
O=C(CCl)Nc1ccc(O)cc1 [PCM-0102163, O=C(CCl)Nc1ccc(O)cc1]	16%	0%	-15.989	-15.989	–	–	–
Cc1ccc(CN(C)C(=O)CCl)cc1 [PCM-0103017, Cc1ccc(CN(C)C(=O)CCl)cc1]	–	9%	–	–	0%	-16.138	-16.138
O=C(CCl)NCC1COc2ccccc2O1 (stereo not drawn) [PCM-0102881, O=C(CCl)NCC1COc2ccccc2O1]	–	0%	–	–	39%	-16.328	-16.328
O=C(CCl)Nc1ccccc1I [PCM-0102509, O=C(CCl)Nc1ccccc1I]	0%	0%	-16.748	-16.748	–	–	–
O=C(CCl)Nc1cccc(Cl)c1Cl [PCM-0102797, O=C(CCl)Nc1cccc(Cl)c1Cl]	–	15%	–	–	0%	-15.881	-15.881
CC(=O)c1oc2ccccc2c1NC(=O)CCl [PCM-0102918, CC(=O)c1oc2ccccc2c1NC(=O)CCl]	–	39%	–	–	0%	-15.842	-15.842
O=C(CCl)N1CCN(Cc2cccc(Cl)c2)CC1 [PCM-0102269, O=C(CCl)N1CCN(Cc2cccc(Cl)c2)CC1]	19%	0%	-15.481	-15.481	–	–	–
O=C(CCl)NCC1CCCc2ccccc21 (stereo not drawn) [PCM-0102794, O=C(CCl)NCC1CCCc2ccccc21]	–	0%	–	–	34%	-16.479	-16.479
O=C(CCl)Nc1ccc2c(c1)OC(F)(F)O2 [PCM-0102738, O=C(CCl)Nc1ccc2c(c1)OC(F)(F)O2]	–	0%	–	–	41%	-15.810	-15.810
O=C(CCl)N1CCN(S(=O)(=O)c2ccc(Cl)cc2)CC1 [PCM-0102704, O=C(CCl)N1CCN(S(=O)(=O)c2ccc(Cl)cc2)CC1]	0%	25%	–	-15.137	–	–	-15.137
